For data set [1] the following is noted: literature value, 'under the same conditions'; cited from earlier work.
For data set [2] the following is noted: cited from earlier work.
Data set [3] in a line: Protonation constants of the ligands (equilibrium study). The note with it: 25° C., 0.15M NaCl. The class given is physicochemical. How it is done: (§1) During the physico-chemical tests of tPC2AM^Pyp and tPC2AM^Pro compounds synthesized according to Example 1 and 2, their protonation constant, as well as equilibrium behaviour and kinetic inertism of their Mn(II) complexes was studied in detail, and the characteristic relaxivity values of the complexes were determined in the presence and absence of HSA (Human Serum Albumin), at 25 and 37° C. and physiological pH. All studies were performed in the presence of 0.15 M NaCl, the same concentration as that of the electrolyte under physiological conditions.
(§2) The results of equilibrium study are summarized in Table 1, in addition to the protonation constants, total basicity of ligands and stability constants of their Mn(II) complexes, the pMn value calculated for complexes are also represented in the table.

The nature of data set [4]: Stability constants of Mn(II) complexes and calculated pMn (equilibrium study). The class given is physicochemical. The note with it: 25° C., 0.15M NaCl; for pMn: calculated from equilibrium constants at pH = 7.4 and cMn = cL = 10^−5 M. As for the experimental part: as §1, §2
Based on the pMn values represented in Table 1 (calculated using the equilibrium constants at pH=7.4 and cMn=cL=10^−5 M), it can be concluded that the studied Mn(II) complexes are formed in 100% at physiological pH, which is an essential aspect of the practical use.

As for `CNC[C@H](O)[C@@H](O)[C@H](O)[C@H](O)CO.O=C([O-])CN1CCN(CC(=O)[O-])CCN(CC(=O)O)CCN(CC(=O)[O-])CC1.[Gd+3]` [DOTAREM], the r1 relaxivity in data set [1] was 3.83 mM⁻¹ s⁻¹.
As for `CNC[C@H](O)[C@@H](O)[C@H](O)[C@H](O)CO.CNC[C@H](O)[C@@H](O)[C@H](O)[C@H](O)CO.O=C([O-])CN(CCN(CC(=O)[O-])CC(=O)O)CCN(CC(=O)[O-])CC(=O)O.[Gd+3]` [MAGNEVIST], the “Gd(III) ion released, calculated on the basis of experiments at 25° C.” value in data set [2] (25° C.) is 0.5%. For the same compound, in data set [2] (37° C.), the “Gd(III) ion released during in vivo dissociation” value is 2.2%. Moreover, the r1 relaxivity in data set [1] is 4.02 mM⁻¹ s⁻¹.
On to `O=C(O)C1CCCN1C(=O)CN1CCNCCN(CC(=O)N2CCCC2C(=O)O)Cc2cccc(n2)C1` (stereo not shown) [tPC2AM^Pro], for which, in data set [3], the “logK1 (protonation constant)” value is 9.80(2), the “logK2 (protonation constant)” value is 7.96(4), the “logK3 (protonation constant)” value is on record as 3.65(5) and the “logK4 (protonation constant)” value was 2.26(4). Further, the “ΣlogKi^H (total basicity)” value in data set [3] is listed as 23.67. For the same compound, in data set [4], the “logKMnL (stability constant of Mn(II) complex)” value is recorded as 13.77(3) and the pMn is recorded as 7.85.
As to `O=C(CN1CCNCCN(CC(=O)N2CCCCC2)Cc2cccc(n2)C1)N1CCCCC1` [tPC2AM^Pyp], in data set [3], the “logK1 (protonation constant)” value is given as 11.31(1), the “logK2 (protonation constant)” value is 3.94(3) and the “ΣlogKi^H (total basicity)” value came to 15.26. Further, in data set [4], the “logKMnL (stability constant of Mn(II) complex)” value is 13.09(2) and the pMn is 7.09.

These data come from US10568976B2, “3,6,9, 15-tetraaza-bicyclo [9.3.1 ]pentadeca-1(14), 11(15), 12-triene based compounds and their application as ligands of essential metal ion based MRI and 52MN based PET contrast agents” (DEBRECENI EGYETEM, priority 2015, dated 2020).
